Reference: PubChem BioAssay AID248 (DTP/NCI, 2004)
“And” between values parts separate entries of the source, which are not always exact repeats. Equal entries are not always repeated. Toxic doses and inconclusive results are not listed.

Test system: L1210 leukemia ip in BDF1 mice, survival T/C
Assay: NCI In Vivo Anticancer Drug Screen. Data for tumor model L1210 Leukemia (intraperitoneal) in B6D2F1 (BDF1) mice
Details: endpoint: mean survival time, higher = longer survival
How it was run: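 Transplantable tumor model; survival measured in treated vs vehicle control mice. Value = treated/control.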

[1] = dose: 8.0 mg/kg/injection, schedule: Q01DX009 (ip), vehicle: carboxymethylcellulose (CMC)
[2] = dose: 100.0 mg/kg/injection, schedule: Q01DX009 (ip), vehicle: carboxymethylcellulose (CMC)
[3] = dose: 200.0 mg/kg/injection, schedule: Q01DX001 (ip), vehicle: carboxymethylcellulose (CMC)
[4] = dose: 100.0 mg/kg/injection, schedule: Q01DX009 (ip), vehicle: Klucel (hydroxypropylcellulose) (HPC)
[5] = dose: 200.0 mg/kg/injection, schedule: Q01DX009 (ip), vehicle: Klucel (hydroxypropylcellulose) (HPC)
[6] = dose: 400.0 mg/kg/injection, schedule: Q01DX009 (ip), vehicle: Klucel (hydroxypropylcellulose) (HPC)
[7] = dose: 12.5 mg/kg/injection, schedule: Q01DX009 (ip), vehicle: saline
[8] = dose: 12.5 mg/kg/injection, schedule: Q04DX003 (ip), vehicle: Klucel (hydroxypropylcellulose) (HPC)
[9] = dose: 25.0 mg/kg/injection, schedule: Q01DX009 (ip), vehicle: saline
[10] = dose: 25.0 mg/kg/injection, schedule: Q04DX003 (ip), vehicle: Klucel (hydroxypropylcellulose) (HPC)
[11] = dose: 50.0 mg/kg/injection, schedule: Q01DX009 (ip), vehicle: saline
[12] = dose: 50.0 mg/kg/injection, schedule: Q04DX003 (ip), vehicle: Klucel (hydroxypropylcellulose) (HPC)
[13] = dose: 100.0 mg/kg/injection, schedule: Q01DX001 (ip), vehicle: saline
[14] = dose: 100.0 mg/kg/injection, schedule: Q01DX001 (ip), vehicle: carboxymethylcellulose (CMC)
[15] = dose: 400.0 mg/kg/injection, schedule: Q01DX001 (ip), vehicle: carboxymethylcellulose (CMC)

SMILES: Clc1ccc(C2c3ccccc3C[n+]3ccccc32)cc1 (centres undefined)
- T/C (dose: 6.25 mg/kg/injection, schedule: Q01DX009 (ip), vehicle: Klucel (hydroxypropylcellulose) (HPC)): 102 % of control
- T/C (dose: 12.5 mg/kg/injection, schedule: Q01DX009 (ip), vehicle: Klucel (hydroxypropylcellulose) (HPC)): 104 % of control
- T/C (dose: 25.0 mg/kg/injection, schedule: Q01DX009 (ip), vehicle: Klucel (hydroxypropylcellulose) (HPC)): 109 % of control
- T/C (dose: 35.0 mg/kg/injection, schedule: Q01DX009 (ip), vehicle: Klucel (hydroxypropylcellulose) (HPC)): 112 % of control

SMILES: O=NN(CCCl)C(=O)Nc1ccc(I)cc1
- T/C [1]: 121 % of control
- T/C (dose: 8.4 mg/kg/injection, schedule: Q01DX009 (ip), vehicle: carboxymethylcellulose (CMC)): 112 % of control
- T/C (dose: 12.0 mg/kg/injection, schedule: Q01DX009 (ip), vehicle: carboxymethylcellulose (CMC)): 112 % of control
- T/C (dose: 17.0 mg/kg/injection, schedule: Q01DX001 (ip), vehicle: carboxymethylcellulose (CMC)): 117 % of control
- T/C (dose: 17.7 mg/kg/injection, schedule: Q01DX001 (ip), vehicle: carboxymethylcellulose (CMC)): 119 % of control
- T/C (dose: 26.6 mg/kg/injection, schedule: Q01DX001 (ip), vehicle: carboxymethylcellulose (CMC)): 122 % of control
- T/C (dose: 29.0 mg/kg/injection, schedule: Q01DX009 (ip), vehicle: carboxymethylcellulose (CMC)): 150 % of control and 154 % of control
- T/C (dose: 44.0 mg/kg/injection, schedule: Q01DX009 (ip), vehicle: carboxymethylcellulose (CMC)): 124 % of control
- T/C (dose: 60.0 mg/kg/injection, schedule: Q01DX001 (ip), vehicle: carboxymethylcellulose (CMC)): 119 % of control
- T/C (dose: 66.0 mg/kg/injection, schedule: Q01DX009 (ip), vehicle: carboxymethylcellulose (CMC)): 121 % of control and 90 % of control
- T/C (dose: 89.0 mg/kg/injection, schedule: Q01DX001 (ip), vehicle: carboxymethylcellulose (CMC)): 153 % of control
- T/C [2]: 98 % of control
- T/C [3]: 186 % of control

SMILES: CC(=O)OCC(=O)[C@@]1(O)CC[C@H]2[C@@H]3CCC4=CC(=O)[C@H](C)C[C@]4(C)[C@@]3(F)[C@@H](O)C[C@@]21C
- T/C (dose: 50.0 mg/kg/injection, schedule: Q01DX Z (sc), vehicle: steriod suspending solution): 114 % of control
- T/C (dose: 100.0 mg/kg/injection, schedule: Q01DX Z (sc), vehicle: steriod suspending solution): 114 % of control

SMILES: NC(=O)Nc1n[nH]c(-c2ccccc2)n1
- T/C (dose: 100.0 mg/kg/injection, schedule: Q01DX009 (ip), vehicle: saline): 90 % of control

SMILES: Cc1cccc(NC(=O)NC(C)C)c1C
- T/C [4]: 109 % of control
- T/C (dose: 100.0 mg/kg/injection, schedule: Q04DX003 (ip), vehicle: Klucel (hydroxypropylcellulose) (HPC)): 102 % of control
- T/C [5]: 109 % of control
- T/C (dose: 200.0 mg/kg/injection, schedule: Q04DX003 (ip), vehicle: Klucel (hydroxypropylcellulose) (HPC)): 96 % of control
- T/C [6]: 102 % of control
- T/C (dose: 400.0 mg/kg/injection, schedule: Q04DX003 (ip), vehicle: Klucel (hydroxypropylcellulose) (HPC)): 98 % of control

SMILES: CCCNC(C)(C)C(SSSC(c1cccs1)C(C)(C)NCCC)c1cccs1 (centres undefined)
- T/C [7]: 101 % of control
- T/C [8]: 96 % of control
- T/C [9]: 95 % of control
- T/C [10]: 106 % of control
- T/C [11]: 92 % of control
- T/C [12]: 96 % of control
- T/C (dose: 75.0 mg/kg/injection, schedule: Q01DX009 (ip), vehicle: Klucel (hydroxypropylcellulose) (HPC)): 98 % of control
- T/C (dose: 75.0 mg/kg/injection, schedule: Q01DX009 (ip), vehicle: saline): 88 % of control
- T/C (dose: 115.0 mg/kg/injection, schedule: Q01DX009 (ip), vehicle: Klucel (hydroxypropylcellulose) (HPC)): 97 % of control
- T/C (dose: 170.0 mg/kg/injection, schedule: Q01DX009 (ip), vehicle: Klucel (hydroxypropylcellulose) (HPC)): 96 % of control
- T/C (dose: 170.0 mg/kg/injection, schedule: Q01DX009 (ip), vehicle: saline): 89 % of control

SMILES: COc1ccc2nccc(/C=C/CC3CCN(C(C)=O)CC3)c2c1
- T/C [7]: 98 % of control
- T/C [8]: 103 % of control
- T/C [9]: 96 % of control
- T/C [10]: 107 % of control
- T/C [11]: 101 % of control
- T/C [12]: 103 % of control
- T/C (dose: 100.0 mg/kg/injection, schedule: Q04DX003 (ip), vehicle: saline): 102 % of control

SMILES: CN(C)NP(=O)(Nc1ccccc1)Nc1ccccc1
- T/C [2]: 103 % of control
- T/C (dose: 200.0 mg/kg/injection, schedule: Q01DX009 (ip), vehicle: carboxymethylcellulose (CMC)): 93 % of control
- T/C (dose: 400.0 mg/kg/injection, schedule: Q01DX009 (ip), vehicle: carboxymethylcellulose (CMC)): 98 % of control

SMILES: Cn1cc2c(=O)n(O)c(=O)[nH]c2n1
- T/C (dose: 50.0 mg/kg/injection, schedule: Q01DX001 (ip), vehicle: saline): 106 % of control
- T/C [13]: 100 % of control
- T/C (dose: 200.0 mg/kg/injection, schedule: Q01DX001 (ip), vehicle: saline): 102 % of control
- T/C (dose: 400.0 mg/kg/injection, schedule: Q01DX001 (ip), vehicle: saline): 102 % of control

SMILES: CCCCCCCCCCCCCCCCCC(=O)NN=C1CCCC1
- T/C [4]: 95 % of control
- T/C [5]: 93 % of control
- T/C [6]: 107 % of control

SMILES: Cc1ccc(OCC(=O)Nc2ccc3c(c2)C(=O)c2ccccc2C3=O)c(C)c1
- T/C [14]: 101 % of control
- T/C [3]: 98 % of control
- T/C [15]: 95 % of control

SMILES: CC(=O)OCCCC[N+](=O)[O-]
- T/C [14]: 98 % of control
- T/C [3]: 98 % of control
- T/C [15]: 98 % of control

SMILES: COc1cc(C=Nc2ccc(-c3nc(Cc4ccccc4)sc3C)cc2)ccc1N(CCCl)CCCl
- T/C (dose: 4.0 mg/kg/injection, schedule: Q01DX009 (ip), vehicle: saline): 102 % of control
- T/C (dose: 6.0 mg/kg/injection, schedule: Q01DX009 (ip), vehicle: Klucel (hydroxypropylcellulose) (HPC)): 109 % of control
- T/C (dose: 6.0 mg/kg/injection, schedule: Q01DX009 (ip), vehicle: saline): 103 % of control
- T/C (dose: 8.0 mg/kg/injection, schedule: Q01DX009 (ip), vehicle: Klucel (hydroxypropylcellulose) (HPC)): 112 % of control
- T/C [1]: 124 % of control
- T/C (dose: 8.0 mg/kg/injection, schedule: Q01DX009 (ip), vehicle: saline): 102 % of control
- T/C (dose: 13.0 mg/kg/injection, schedule: Q01DX001 (ip), vehicle: Klucel (hydroxypropylcellulose) (HPC)): 109 % of control
- T/C (dose: 13.0 mg/kg/injection, schedule: Q01DX001 (ip), vehicle: saline): 93 % of control
- T/C (dose: 13.0 mg/kg/injection, schedule: Q01DX009 (ip), vehicle: saline): 100 % of control
- T/C (dose: 20.0 mg/kg/injection, schedule: Q01DX001 (ip), vehicle: Klucel (hydroxypropylcellulose) (HPC)): 113 % of control
- T/C (dose: 20.0 mg/kg/injection, schedule: Q01DX001 (ip), vehicle: saline): 91 % of control
- T/C (dose: 20.0 mg/kg/injection, schedule: Q01DX009 (ip), vehicle: carboxymethylcellulose (CMC)): 106 % of control
- T/C (dose: 20.0 mg/kg/injection, schedule: Q01DX009 (ip), vehicle: saline): 105 % of control
- T/C (dose: 30.0 mg/kg/injection, schedule: Q01DX001 (ip), vehicle: Klucel (hydroxypropylcellulose) (HPC)): 124 % of control
- T/C (dose: 30.0 mg/kg/injection, schedule: Q01DX001 (ip), vehicle: saline): 102 % of control
- T/C (dose: 30.0 mg/kg/injection, schedule: Q01DX009 (ip), vehicle: Klucel (hydroxypropylcellulose) (HPC)): 153 % of control
- T/C (dose: 44.0 mg/kg/injection, schedule: Q01DX001 (ip), vehicle: carboxymethylcellulose (CMC)): 122 % of control
- T/C (dose: 45.0 mg/kg/injection, schedule: Q01DX001 (ip), vehicle: Klucel (hydroxypropylcellulose) (HPC)): 121 % of control
- T/C (dose: 45.0 mg/kg/injection, schedule: Q01DX001 (ip), vehicle: carboxymethylcellulose (CMC)): 166 % of control
- T/C (dose: 45.0 mg/kg/injection, schedule: Q01DX001 (ip), vehicle: saline): 110 % of control
- T/C (dose: 66.0 mg/kg/injection, schedule: Q01DX001 (ip), vehicle: saline): 106 % of control
- T/C [13]: 112 % of control and 124 % of control
- T/C (dose: 150.0 mg/kg/injection, schedule: Q01DX001 (ip), vehicle: carboxymethylcellulose (CMC)): 108 % of control
- T/C [3]: 97 % of control
